Biological target: HGFR (c-Met) (Homo sapiens, UniProt P08581)
Assay: HGFR Continuous-Coupled Spectrophotometric Assay
Assay type: biochemical
Details: HGFR enzyme 50 nM, Met-2 peptide substrate, 37° C.
How it was run: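 Human HGFR (50 nM final) phosphorylates the Met-2 activation-loop peptide, with ADP formation coupled through PK/LDH to NADH consumption, read as the A340 decrease over 10 min at 37 °C. Buffer was HEPES pH 7.5 with MgCl2, DTT, PEP and ATP.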

Chain of HGFR (c-Met) (P08581 974-1390): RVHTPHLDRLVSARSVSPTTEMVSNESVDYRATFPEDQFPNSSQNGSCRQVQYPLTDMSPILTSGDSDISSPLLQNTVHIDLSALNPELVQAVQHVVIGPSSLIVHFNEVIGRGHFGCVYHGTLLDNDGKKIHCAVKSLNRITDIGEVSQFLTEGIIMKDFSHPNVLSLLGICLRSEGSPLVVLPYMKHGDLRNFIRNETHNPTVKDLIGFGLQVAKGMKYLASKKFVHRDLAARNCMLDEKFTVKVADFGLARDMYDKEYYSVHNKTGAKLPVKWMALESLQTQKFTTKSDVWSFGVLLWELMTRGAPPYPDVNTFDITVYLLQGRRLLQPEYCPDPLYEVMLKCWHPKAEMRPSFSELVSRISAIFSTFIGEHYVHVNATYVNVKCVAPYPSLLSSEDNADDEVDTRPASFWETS

Row | SMILES | Ki [nM]
1 | CCN(CC)CCC(=O)NCc1cccc(-c2cnc(N)c(OC(C)c3c(Cl)ccc(F)c3Cl)c2)c1 (stereo not shown) [Example 68, N-(3-{6-Amino-5-[1-(2,6-dichloro-3-fluoro-phenyl)-ethoxy]-pyridin-3-yl}-benzyl)-3-diethylamino-propionamide] | 68.1
2 | CC(Oc1cc(NC(=O)c2cnccn2)cnc1N)c1c(Cl)ccc(F)c1Cl (stereo not shown) [Example 93, Pyrazine-2-carboxylic acid {6-amino-5-[1-(2,6-dichloro-3-fluoro-phenyl)-ethoxy]-pyridin-3-yl}-amide] | 1470
3 | CC(Oc1cc(-c2ccc(C(=O)NCC3CCNC3)cc2)cnc1N)c1c(Cl)ccc(F)c1Cl (stereo not shown) [Example 15, 4-{6-Amino-5-[1-(2,6-dichloro-3-fluorophenyl)ethoxy]pyridin-3-yl}-N-(pyrrolidin-3-ylmethyl)benzamide] | 71
4 | CC(Oc1cc(-c2ccc(C(=O)N(C)CCCN(C)C)cc2)cnc1N)c1c(Cl)ccc(F)c1Cl (stereo not shown) [Example 122, 4-{6-amino-5-[1-(2,6-dichloro-3-fluorophenyl)ethoxy]pyridin-3-yl}-[3-(dimethylamino)propyl]-N-methylbenzamide] | 25
5 | COCCN1CCN(C(=O)c2ccc(-c3cnc(N)c(OC(C)c4c(Cl)ccc(F)c4Cl)c3)cc2)CC1 (stereo not shown) [Example 4] | 44
6 | CC(Oc1cc(-c2ccc(F)c(C(=O)N3CCC(N4CCCC4)CC3)c2)cnc1N)c1c(Cl)ccc(F)c1Cl (stereo not shown) [Example 55, (5-{6-Amino-5-[1-(2,6-dichloro-3-fluoro-phenyl)-ethoxy]-pyridin-3-yl}-2-fluoro-phenyl)-(4-pyrrolidin-1-yl-piperidin-1-yl)-methanone] | 102
7 | CC(Oc1cc(-c2ccc(C(=O)N(C)CCN(C)C)cc2)cnc1N)c1c(Cl)ccc(F)c1Cl (stereo not shown) [Example 118, 4-{6-amino-5-[1-(2,6-dichloro-3-fluorophenyl)ethoxy]pyridin-3-yl}-N-[2-(dimethylamino)ethyl]-N-methylbenzamide] | 30
8 | C[C@@H](Oc1nc(-c2ccc(C(=O)N3CCNCC3)cc2)cnc1N)c1c(Cl)ccc(F)c1Cl [Example 48, (4-{5-Amino-6-[(R)-1-(2,6-dichloro-3-fluoro-phenyl)-ethoxy]-pyrazin-2-yl}-phenyl)-piperazin-1-yl-methanone] | 27
9 | Nc1ncc(-c2ccc(OCCN3CCCC3)cc2)cc1OC1CCCCc2ccc(F)cc21 (stereo not shown) [Example 37, 3-(3-Fluoro-6,7,8,9-tetrahydro-5H-benzocyclohepten-5-yloxy)-5-[4-(2-pyrrolidin-1-yl-ethoxy)-phenyl]-pyridin-2-ylamine] | 8270
10 | CC(Oc1cc(-c2ccc(N3CCOCC3)nc2)cnc1N)c1c(Cl)ccc(F)c1Cl (stereo not shown) [Example 61, 5-[1-(2,6-Dichloro-3-fluoro-phenyl)-ethoxy]-6′-morpholin-4-yl-[3,3′]bipyridinyl-6-ylamine] | 72
11 | COc1cc(-c2cnc(N)c(OC(C)c3c(Cl)ccc(F)c3Cl)c2)ccc1CN1CCNCC1 (stereo not shown) [Example 29, 3-[1-(2,6-dichloro-3-fluorophenyl)ethoxy]-5-[3-methoxy-4-(piperazin-1-ylmethyl)phenyl]pyridin-2-amine] | 12.3
12 | CC(Oc1cc(-c2ccc3[nH]cc(CN(C)C)c3c2)cnc1N)c1c(Cl)ccc(F)c1Cl (stereo not shown) [Example 143, 3-[1-(2,6-dichloro-3-fluorophenyl)ethoxy]-5-{3-[(dimethylamino)methyl]-1H-indol-5-yl}pyridin-2-amine] | 72
13 | CC(Oc1cc(-c2ccc(CC#N)cc2)cnc1N)c1c(Cl)ccc(F)c1Cl (stereo not shown) [Example 134, (4-{6-amino-5-[1-(2,6-dichloro-3-fluorophenyl)ethoxy]pyridin-3-yl}phenyl)acetonitrile] | 92
14 | CC(Oc1cc(-c2ccc(C(=O)N3CCC(N4CCCC4)CC3)cc2)cnc1N)c1c(Cl)ccc(Cl)c1F (stereo not shown) [Example 96, (4-{6-Amino-5-[1-(3,6-dichloro-2-fluoro-phenyl)-ethoxy]-pyridin-3-yl}-phenyl)-(4-pyrrolidin-1-yl-piperidin-1-yl)-methanone] | 217
15 | COc1cc(-c2cnc(N)c(OC(C)c3c(Cl)ccc(F)c3Cl)c2)ccc1C(=O)N1CCNCC1 (stereo not shown) [Example 28, 3-[1-(2,6-dichloro-3-fluorophenyl)ethoxy]-5-[3-methoxy-4-(piperazin-1-ylcarbonyl)phenyl]pyridin-2-amine] | 26.4
16 | CC(Oc1cc(-c2cnc(N3CCN(C(=O)OC(C)(C)C)CC3)nc2)cnc1N)c1c(Cl)ccc(F)c1Cl (stereo not shown) [Example 120, tert-butyl 4-(5-{6-amino-5-[1-(2,6-dichloro-3-fluorophenyl)ethoxy]pyridin-3-yl}pyrimidin-2-yl)piperazine-1-carboxylate] | 1000
17 | CC(Oc1cc(-c2ccc(C[C@H](N)C(=O)O)cc2)cnc1N)c1c(Cl)ccc(F)c1Cl (stereo partly shown) [Example 144, 4-{6-amino-5-[1-(2,6-dichloro-3-fluorophenyl)ethoxy]pyridin-3-yl}phenylalanine] | 80

Row | SMILES | Ki [nM]
18 | CC(Oc1cc(-c2cn(C3CCNCC3)cn2)cnc1N)c1c(Cl)ccc(F)c1Cl (stereo not shown) [Example 77, 3-[1-(2,6-Dichloro-3-fluoro-phenyl)-ethoxy]-5-(1-piperidin-4-yl-1H-imidazol-4-yl)-pyridin-2-ylamine] | 38
19 | Cc1cc2cccc(-c3cnc(N)c(OC(C)c4c(Cl)ccc(F)c4Cl)n3)c2[nH]1 (stereo not shown) [Example 95, 3-[1-(2,6-Dichloro-3-fluoro-phenyl)-ethoxy]-5-(2-methyl-1H-indol-7-yl)-pyrazin-2-ylamine] | 4200
20 | CC(Oc1cc(-c2ccc(NC(=O)N3CCC(NC4CC4)CC3)cc2)cnc1N)c1c(Cl)ccc(F)c1Cl (stereo not shown) [Example 39, 4-Cyclopropylamino-piperidine-1-carboxylic acid (4-{6-amino-5-[1-(2,6-dichloro-3-fluoro-phenyl)-ethoxy]-pyridin-3-yl}-phenyl)-amide] | 95
21 | CC(Oc1cc(-c2cnc3[nH]c(=O)oc3c2)cnc1N)c1c(Cl)ccc(F)c1Cl (stereo not shown) [Example 107, 6-{6-amino-5-[1-(2,6-dichloro-3-fluorophenyl)ethoxy]pyridin-3-yl}(1,3]oxazolo[4,5-b]pyridin-2 (3H)-one] | 27
22 | CC(=O)N1CCC(C#N)(c2cccc(-c3cnc(N)c(OC(C)c4c(Cl)ccc(F)c4Cl)c3)c2)CC1 (stereo not shown) [Example 154, 1-acetyl-4-(3-{6-amino-5-[1-(2,6-dichloro-3-fluorophenyl)ethoxy]pyridin-3-yl}phenyl) piperidine-4-carbonitrile] | 22
23 | CC(Oc1cc(-c2cccc(CC#N)c2)cnc1N)c1c(Cl)ccc(F)c1Cl (stereo not shown) [Example 133, (3-{6-amino-5-[1-(2,6-dichloro-3-fluorophenyl)ethoxy]pyridin-3-yl}phenyl)acetonitrile] | 41
24 | CC(Oc1cc(-c2ccc(C(=O)N3CCC(N4CCCC4)CC3)cc2)cnc1N)c1cccc(C(=O)O)c1 (stereo not shown) [Example 84, 3-(1-{2-Amino-5-[4-(4-pyrrolidin-1-yl-piperidine-1-carbonyl)-phenyl]-pyridin-3-yloxy}-ethyl)-benzoic acid] | 5480
25 | C[C@@H](Oc1cc(-c2ccc(C(=O)N3CCN(C(=O)OC(C)(C)C)CC3)cc2)cnc1N)c1c(Cl)ccc(F)c1Cl [Example 129, tert-butyl 4-(4-{6-amino-5-[(1 R)-1-(2,6-dichloro-3-fluorophenyl)ethoxy]pyridin-3-yl}benzoyl)piperazine-1-carboxylate] | 30
26 | CC(C)NC(=O)CN1CCN(C(=O)c2ccc(-c3cnc(N)c(OC(C)c4c(Cl)ccc(F)c4Cl)c3)cc2)CC1 (stereo not shown) [Example 3, 2-[4-(4-{6-Amino-5-[1-(2,6-dichloro-3-fluorophenyl)ethoxy]pyridin-3-yl}benzoyl)piperazin-1-yl]-N-isopropylacetamide] | 26
27 | CC(Oc1cc(-c2ccc(C(=O)NC3CCNCC3)cc2)cnc1N)c1c(Cl)ccc(F)c1Cl (stereo not shown) [Example 12, 4-{6-Amino-5-[1-(2,6-dichloro-3-fluorophenyl)ethoxy]pyridin-3-yl}-N-piperidin-4-ylbenzamide] | 41
28 | CC(=O)c1ccc(-c2cnc(N)c(OC(C)c3c(Cl)ccc(F)c3Cl)c2)cc1 (stereo not shown) [Example 147, 1-(4-{6-amino-5-[1-(2,6-dichloro-3-fluorophenyl)ethoxy]pyridin-3-yl}phenyl) ethanone] | 73
29 | CCOc1ccc(Cl)c(C(C)Oc2cc(-c3ccc(C(=O)N4CCNCC4)cc3)cnc2N)c1Cl (stereo not shown) [Example 78, (4-{6-Amino-5-[1-(2,6-dichloro-3-ethoxy-phenyl)-ethoxy]-pyridin-3-yl}-phenyl)-piperazin-1-yl-methanone] | 57
30 | COc1ccc(Cl)c(C(C)Oc2cc(-c3ccc(C(=O)N4CCNCC4)cc3)cnc2N)c1Cl (stereo not shown) [Example 80, (4-{6-Amino-5-[1-(2,6-dichloro-3-methoxy-phenyl)-ethoxy]-pyridin-3-yl}-phenyl)-piperazin-1-yl-methanone] | 6
31 | C[C@H](Oc1cc(-c2ccc(C(=O)N3CCNCC3)cc2)cnc1N)c1c(Cl)ccc(F)c1Cl [Example 119, 3-[(1S)-1-(2,6-dichloro-3-fluorophenyl)ethoxy]-5-[4-(piperazin-1-ylcarbonyl)phenyl] pyridin-2-amine] | 1500
32 | Cc1[nH]c(C(=O)O)c(C)c1-c1cnc(N)c(OC(C)c2c(Cl)ccc(F)c2Cl)c1 (stereo not shown) [Example 42, 4-{6-Amino-5-[1-(2,6-dichloro-3-fluoro-phenyl)-ethoxy]-pyridin-3-yl}-3,5-dimethyl-1H-pyrrole-2-carboxylic acid] | 1250
33 | CC(Oc1cc(-c2ccc(N3CCC(O)CC3)nc2)cnc1N)c1c(Cl)ccc(F)c1Cl (stereo not shown) [Example 64, 6″-Amino-5″-[1-(2,6-dichloro-3-fluoro-phenyl)-ethoxy]-3,4,5,6-tetrahydro-2H-[1,2′;5′,3″]terpyridin-4-ol] | 19.3

Same assay, conditions: compound at 1 μM

Row | SMILES | inhibition at 1 µM [%]
34 | CC(Oc1cc(-c2ccc(C(=O)NCC3CCNC3)cc2)cnc1N)c1c(Cl)ccc(F)c1Cl (stereo not shown) [Example 15, 4-{6-Amino-5-[1-(2,6-dichloro-3-fluorophenyl)ethoxy]pyridin-3-yl}-N-(pyrrolidin-3-ylmethyl)benzamide] | 85
35 | COCCN1CCN(C(=O)c2ccc(-c3cnc(N)c(OC(C)c4c(Cl)ccc(F)c4Cl)c3)cc2)CC1 (stereo not shown) [Example 4] | 95
36 | CCC(Oc1cc(-c2ccc(C(=O)N3CCC(N4CCCC4)CC3)cc2)cnc1N)c1cc(F)c(F)cc1F (stereo not shown) [Example 83, (4-{6-Amino-5-[1-(2,4,5-trifluoro-phenyl)-propoxy]-pyridin-3-yl}-phenyl)-(4-pyrrolidin-1-yl-piperidin-1-yl)-methanone] | 11
37 | CC(Oc1cc(-c2ccc(C(=O)NC3CCNCC3)cc2)cnc1N)c1c(Cl)ccc(F)c1Cl (stereo not shown) [Example 12, 4-{6-Amino-5-[1-(2,6-dichloro-3-fluorophenyl)ethoxy]pyridin-3-yl}-N-piperidin-4-ylbenzamide] | 86

— patent US20060178374A1, “Aminoheteroaryl compounds as protein kinase inhibitors” (AGOURON PHARMACEUTICALS, INC., priority 2004, published 2006)
